Data reported in US20180333491A1 (Sinotau Pharmaceuticals Group, priority 2015, published 2018).
Marks after values point to notes of the source that are not given here.

Key:
[1] = test system: human colon cancer tumor cells Colo205; assay: Colo205 subcutaneous model; type: in vivo, nude mice; settings: for Tumor Volume (cm^3) Mean ± SEM / TGI (Calculated using tumor volume): Day 28 after treatment; for Time of tumor volume changed significantly: days after first treatment; for Tumor weight (g) Mean ± SEM / TGI (Calculated using tumor weight): end of experiment
Protocol: (§1) Tumor cells (i.e., MIA-PaCa-2, WiDr, H2122, colo205) were inoculated in nude mice's flank at 5×10^6 cells per mouse. The mice were grouped when the average volume of tumors reached about 100˜200 mm^3. “QW”=weekly dose. “Q3d”=dosed every third day. “BiW”=biweekly.
(§2) The bodyweight and major/minor axis of the mice were measured twice a week, and the tumor volumes were calculated using the formula: Tumor volume=1/2×major axis[…]. […] “T” represents average tumor volume of the experimental group (cm^3), and “C” represents average tumor volume of the control group (cm^3). The animals were monitored at all times. The bodyweight and major/minor axis or mice were measured twice a week.
(§3) Tumor volumes were represented with average ±standard error. […] P<0.05 represents significant difference.

[2] = target: T1, OPG (recombinant human osteroprotegerin/TNFRSF11B) (Homo sapiens, UniProt O00300); assay: CLEIA binding specificity; settings: OPG-His coated; antibody 200, 40 and 8 ng/mL
T1 construct: His; purchased Wuxi Pharmatech Co. Ltd Lot: 20120717
T1 sequence (O00300 22-401): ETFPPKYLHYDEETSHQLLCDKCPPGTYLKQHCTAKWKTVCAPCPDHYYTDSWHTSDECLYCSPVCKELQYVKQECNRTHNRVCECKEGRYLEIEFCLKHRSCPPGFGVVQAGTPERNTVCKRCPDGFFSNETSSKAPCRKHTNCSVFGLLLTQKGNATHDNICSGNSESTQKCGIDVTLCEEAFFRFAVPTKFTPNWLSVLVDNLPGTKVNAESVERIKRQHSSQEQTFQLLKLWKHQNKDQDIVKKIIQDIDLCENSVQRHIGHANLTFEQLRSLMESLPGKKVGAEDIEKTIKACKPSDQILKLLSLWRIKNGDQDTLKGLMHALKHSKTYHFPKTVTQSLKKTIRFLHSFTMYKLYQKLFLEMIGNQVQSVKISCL
Protocol: (§4) The binding specificity of HuCTB006 was evaluated by chemiluminescent enzyme immunoassay (CLEIA).
(§5) HuCTB006 was diluted into 200, 40 and 8 ng/mL and then added to the wells. After 1 hour incubation in 37° C., the plate was washed. The binding of HuCTB006 with immobilized antigens was detected with HRP labeled secondary antibody and a substrate solution.

[3] = target: T2, DcR1 (recombinant human TRAIL R3/TNFRSF10C) (Homo sapiens, UniProt O14798); assay: CLEIA binding specificity; settings: DcR1-His coated; antibody 200, 40 and 8 ng/mL
T2 construct: His; purchased Novoprotein Science Lot: 0328670
T2 sequence (O14798 26-236): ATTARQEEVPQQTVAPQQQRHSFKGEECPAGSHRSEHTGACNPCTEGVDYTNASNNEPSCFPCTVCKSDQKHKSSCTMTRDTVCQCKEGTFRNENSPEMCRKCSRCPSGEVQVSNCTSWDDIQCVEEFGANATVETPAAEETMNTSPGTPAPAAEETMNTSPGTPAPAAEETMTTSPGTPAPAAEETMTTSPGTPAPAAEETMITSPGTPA
Protocol: as §4, §5

[4] = target: T3, DcR2 (recombinant human TRAIL R4/TNFRSF10D) (Homo sapiens, UniProt Q9UBN6); assay: CLEIA binding specificity; settings: DcR2-His coated; antibody 200, 40 and 8 ng/mL
T3 construct: His; purchased Sino Biological Lot: LC06JU1502
T3 sequence (Q9UBN6 56-386): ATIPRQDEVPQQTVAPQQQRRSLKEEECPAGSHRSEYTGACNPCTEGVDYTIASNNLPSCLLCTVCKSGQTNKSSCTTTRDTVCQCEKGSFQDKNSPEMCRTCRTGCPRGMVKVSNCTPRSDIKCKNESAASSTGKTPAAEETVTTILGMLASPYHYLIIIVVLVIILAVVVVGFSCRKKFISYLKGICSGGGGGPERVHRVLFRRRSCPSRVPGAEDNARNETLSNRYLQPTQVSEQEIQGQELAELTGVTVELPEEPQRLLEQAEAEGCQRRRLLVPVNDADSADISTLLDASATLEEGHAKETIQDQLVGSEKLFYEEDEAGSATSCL
Protocol: as §4, §5

[5] = target: T4, DR4 (Homo sapiens, UniProt O00220); assay: CLEIA binding specificity; settings: DR4-His-EC coated; antibody 200, 40 and 8 ng/mL
T4 construct: His; Lot: 090222-P; host or cells: E. coli
Protocol: as §4, §5

[6] = test system: human colon cancer tumor cells Widr; assay: WiDr subcutaneous model; type: in vivo, nude mice; settings: for Tumor Volume (cm^3) Mean ± SEM / TGI (Calculated using tumor volume): Day 27 after treatment; for TGI (Calculated using tumor volume): listed as HuTB006; for Tumor weight (g) Mean ± SEM: end of experiment
Protocol: as §1, §2, §3

[7] = test system: human pancreatic cancer tumor cells MIA-PaCa-2; assay: MIA-PaCa-2 subcutaneous model; settings: for Tumor Volume (cm^3) Mean ± SEM: 34 days of treatment; for Time of tumor volume changed significantly: days after first treatment; for Tumor weight (g) Mean ± SEM: end of experiment
Protocol: (§6) The bodyweight and major/minor axis of the mice were measured twice a week, and the tumor volumes were calculated using the formula: Tumor volume=1/2×major axis×minor axis. […] “T” represents average tumor volume of the experimental group (cm^3), and “C” represents average tumor volume of the control group (cm^3). The animals were monitored at all times. The bodyweight and major/minor axis or mice were measured twice a week. When the experiments were concluded, mice were sacrificed and tumors were extracted and weighted.
(§7) Tumor volumes were represented with average ±standard error. Data analysis was done using Spss16.0, One-Way ANOVA, LSD (homogeneity of variance) or Dunnett T3 (non-homogeneity of variance). […] P<0.05 represents significant difference.

[8] = test system: human lung cancer tumor cells H2122; assay: H2122 subcutaneous model; settings: for Tumor Volume (cm^3) Mean ± SEM: Day 38 after treatment; for Tumor weight (g) Mean ± SEM: end of experiment
Protocol: as §6, §7

[9] = HuCTB006 0.6 mg/kg i.v., 0.6 mg/kg
[10] = HuCTB006 1.8 mg/kg i.v., 1.8 mg/kg
[11] = HuCTB006 5.4 mg/kg i.v., 5.4 mg/kg

HuCTB006: Monospecific humanized chimeric monoclonal antibody directed to TRAIL-R2 receptor; heavy chain SEQ ID NO: 16, light chain SEQ ID NO: 14
Tumor Volume (cm^3) Mean ± SEM ([1]; HuCTB006 0.2 mg/kg i.v.): 1.24 ± 0.20 cm^3 | Time of tumor volume changed significantly ([1]; HuCTB006 0.2 mg/kg i.v.): 10 days | Tumor weight (g) Mean ± SEM ([1]; HuCTB006 0.2 mg/kg i.v.): 0.84 ± 0.14 g | TGI (Calculated using tumor volume) ([1]; HuCTB006 0.6 mg/kg i.v.): 84.78% | Tumor Volume (cm^3) Mean ± SEM ([1]; HuCTB006 0.6 mg/kg i.v.): 0.29 ± 0.13 cm^3 | TGI (Calculated using tumor volume) [1, 9]: 84.78%* | TGI (Calculated using tumor weight) ([1]; HuCTB006 0.6 mg/kg i.v.): 84.07% | Tumor weight (g) Mean ± SEM ([1]; HuCTB006 0.6 mg/kg i.v.): 0.20 ± 0.10 g | TGI (Calculated using tumor weight) [1, 9]: 84.07%* | TGI (Calculated using tumor volume) ([1]; HuCTB006 1.8 mg/kg i.v.): 80.07% | Tumor Volume (cm^3) Mean ± SEM ([1]; HuCTB006 1.8 mg/kg i.v.): 0.38 ± 0.16 cm^3 | TGI (Calculated using tumor volume) [1, 10]: 80.07%* | TGI (Calculated using tumor weight) ([1]; HuCTB006 1.8 mg/kg i.v.): 81.78% | Tumor weight (g) Mean ± SEM ([1]; HuCTB006 1.8 mg/kg i.v.): 0.23 ± 0.12 g | TGI (Calculated using tumor weight) [1, 10]: 81.78%* | TGI (Calculated using tumor volume) ([1]; HuCTB006 5.4 mg/kg i.v.): 85.24% | Tumor Volume (cm^3) Mean ± SEM ([1]; HuCTB006 5.4 mg/kg i.v.): 0.28 ± 0.10 cm^3 | TGI (Calculated using tumor volume) [1, 11]: 85.24%* | Time of tumor volume changed significantly ([1]; HuCTB006 5.4 mg/kg i.v.): 7~10^2 days | TGI (Calculated using tumor weight) ([1]; HuCTB006 5.4 mg/kg i.v.): 88.15% | Tumor weight (g) Mean ± SEM ([1]; HuCTB006 5.4 mg/kg i.v.): 0.15 ± 0.07 g | TGI (Calculated using tumor weight) [1, 11]: 88.15%* | cross-reaction with coated antigen (CLEIA) [2]: no cross-reaction | cross-reaction with coated antigen (CLEIA) [3]: no cross-reaction | cross-reaction with coated antigen (CLEIA) [4]: no cross-reaction | cross-reaction with coated antigen (CLEIA) [5]: no cross-reaction | Tumor Volume (cm^3) Mean ± SEM ([6]; HuCTB006 0.07 mg/kg i.v.): 1.76 ± 0.18 cm^3 | TGI (Calculated using tumor volume) ([6]; HuCTB006 0.07 mg/kg i.v.): 6.61%^1 | Tumor weight (g) Mean ± SEM ([6]; HuCTB006 0.07 mg/kg i.v.): 1.29 ± 0.18 g | Tumor Volume (cm^3) Mean ± SEM ([6]; HuCTB006 0.22 mg/kg i.v.): 1.54 ± 0.18 cm^3 | TGI (Calculated using tumor volume) ([6]; HuCTB006 0.22 mg/kg i.v.): 18.71%^ac | Tumor weight (g) Mean ± SEM ([6]; HuCTB006 0.22 mg/kg i.v.): 1.16 ± 0.13 g | Tumor Volume (cm^3) Mean ± SEM ([6]; HuCTB006 0.67 mg/kg i.v.): 0.96 ± 0.10 cm^3 | Tumor weight (g) Mean ± SEM ([6]; HuCTB006 0.67 mg/kg i.v.): 0.68 ± 0.08 g | Tumor Volume (cm^3) Mean ± SEM ([6]; HuCTB006 2 mg/kg i.v.): 0.80 ± 0.11 cm^3 | Tumor weight (g) Mean ± SEM ([6]; HuCTB006 2 mg/kg i.v.): 0.53 ± 0.08 g | Tumor Volume (cm^3) Mean ± SEM ([7]; HuCTB006 0.2 mg/kg i.v.): 1.76 ± 0.15 cm^3 | Time of tumor volume changed significantly ([7]; HuCTB006 0.2 mg/kg i.v.): 13 days | Tumor weight (g) Mean ± SEM ([7]; HuCTB006 0.2 mg/kg i.v.): 0.79 ± 0.07 g | Tumor Volume (cm^3) Mean ± SEM ([7]; HuCTB006 0.6 mg/kg i.v.): 1.27 ± 0.43 cm^3 | Tumor weight (g) Mean ± SEM ([7]; HuCTB006 0.6 mg/kg i.v.): 0.54 ± 0.21 g | Tumor Volume (cm^3) Mean ± SEM ([7]; HuCTB006 1 mg/kg i.v.): 0.88 ± 0.35 cm^3 | Tumor weight (g) Mean ± SEM ([7]; HuCTB006 1 mg/kg i.v.): 0.37 ± 0.19 g | Tumor Volume (cm^3) Mean ± SEM ([7]; HuCTB006 10 mg/kg i.v.): 0.76 ± 0.22 cm^3 | Time of tumor volume changed significantly ([7]; HuCTB006 10 mg/kg i.v.): 7^2 days | Tumor weight (g) Mean ± SEM ([7]; HuCTB006 10 mg/kg i.v.): 0.19 ± 0.08 g | bodyweights ([7]; MIA-PaCa-2 model, over the treatment time): slow increase | Tumor Volume (cm^3) Mean ± SEM ([8]; HuCTB006 0.2 mg/kg i.v.): 1.85 ± 0.15 cm^3 | Tumor weight (g) Mean ± SEM ([8]; HuCTB006 0.2 mg/kg i.v.): 1.54 ± 0.09 g | Tumor Volume (cm^3) Mean ± SEM ([8]; HuCTB006 0.6 mg/kg i.v.): 1.02 ± 0.31 cm^3 | Tumor weight (g) Mean ± SEM ([8]; HuCTB006 0.6 mg/kg i.v.): 0.89 ± 0.29 g | Tumor Volume (cm^3) Mean ± SEM ([8]; HuCTB006 1.8 mg/kg i.v.): 0.16 ± 0.16 cm^3 | Tumor weight (g) Mean ± SEM ([8]; HuCTB006 1.8 mg/kg i.v.): 0.12 ± 0.12 g | Tumor Volume (cm^3) Mean ± SEM ([8]; HuCTB006 5.4 mg/kg i.v.): 0.18 ± 0.18 cm^3 | Tumor weight (g) Mean ± SEM ([8]; HuCTB006 5.4 mg/kg i.v.): 0.19 ± 0.18 g
